Laboratory results: BindingDB's records for doi:10.1016/j.bioorg.2017.02.017 (Warsaw University of Technology, 2017)

target: Casein kinase II subunit alpha (Homo sapiens, UniProt P68400); test: CK2α Inhibition Assay
Sequence (P68400 whole entry): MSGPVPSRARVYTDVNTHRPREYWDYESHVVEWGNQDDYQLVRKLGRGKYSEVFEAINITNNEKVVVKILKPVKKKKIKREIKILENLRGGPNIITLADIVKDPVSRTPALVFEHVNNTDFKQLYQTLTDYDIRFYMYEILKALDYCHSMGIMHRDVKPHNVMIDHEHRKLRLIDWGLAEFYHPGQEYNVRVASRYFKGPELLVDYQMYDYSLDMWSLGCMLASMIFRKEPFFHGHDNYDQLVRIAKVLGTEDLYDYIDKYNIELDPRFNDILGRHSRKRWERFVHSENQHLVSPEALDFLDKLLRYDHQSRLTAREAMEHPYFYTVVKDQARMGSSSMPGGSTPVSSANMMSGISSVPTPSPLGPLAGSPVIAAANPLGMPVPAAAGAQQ
Protocol: The activity of CK2α was tested using P81 filter isotopic assay, as it was described earlier [Łukowska-Chojnacka et al., Bioorg.

Compound	Ki
[N-]=[N+]=NCCCn1cnc2c(Br)c(Br)c(Br)c(Br)c21 [1-(3-Azidopropyl)-4,5,6,7-tetrabromo-1H-benzimidazole (5)]	3.28 µM
O=C(O)CCc1cn(CCCn2nc3c(Br)c(Br)c(Br)c(Br)c3n2)nn1 [3-{1-[3-(4,5,6,7-Tetrabromo-2H-benzotriazol-2-yl)propyl]-1H-1,2,3-triazole-4-yl}propanoic acid (23)]	3.16 µM
Cc1c(Br)c(Br)c(Br)c2nc[nH]c12 [4,5,6-tribromo-7-methyl-1H-benzimidazole (13)]	2.26 µM
O=C(O)CCc1cn(CCn2cnc3c(Br)c(Br)c(Br)c(Br)c32)nn1 [3-{1-[2-(4,5,6,7-Tetrabromo-1H-benzimidazol-1-yl)ethyl]-1H-1,2,3-triazole-4-yl}propanoic acid (8)]	5.37 µM
O=C(O)c1cn(CCCn2nc3c(Br)c(Br)c(Br)c(Br)c3n2)nn1 [1-[3-(4,5,6,7-Tetrabromo-2H-benzotriazol-2-yl)propyl]-1H-1,2,3-triazole-4-carboxylic acid (22)]	2.47 µM
[N-]=[N+]=NCCn1cnc2c(Br)c(Br)c(Br)c(Br)c21 [1-(2-Azidoethyl)-4,5,6,7-tetrabromo-1H-benzimidazole (3)]	2.34 µM

Now from value to compound:

Ki	Compound
2.37 µM	O=C(O)CCc1cn(CCCn2cnc3c(Br)c(Br)c(Br)c(Br)c32)nn1 [3-{1-[3-(4,5,6,7-Tetrabromo-1H-benzimidazol-1-yl)propyl]-1H-1,2,3-triazole-4-yl}propanoic acid (11)]
0.91 µM	O=C(O)c1cn(CCCn2cnc3c(Br)c(Br)c(Br)c(Br)c32)nn1 [1-[3-(4,5,6,7-Tetrabromo-1H-benzimidazol-1-yl)propyl]-1H-1,2,3-triazole-4-carboxylic acid (10)]
1.96 µM	O=C(O)c1cn(CCn2cnc3c(Br)c(Br)c(Br)c(Br)c32)nn1 [1-[2-(4,5,6,7-Tetrabromo-1H-benzimidazol-1-yl)ethyl]-1H-1,2,3-triazole-4-carboxylic acid (7)]
